Assay results from ChEMBL document CHEMBL2069240, “Design, solvent free synthesis, and antimicrobial evaluation of 1,4 dihydropyridines” (2012).
Values after ≈ are worked out from the molar mass of the structure shown.

Columns and labels:
Escherichia coli [1] = assay: Antibacterial activity against Escherichia coli ATCC 25922; assay type: functional
Citrobacter koseri = assay: Antibacterial activity against Citrobacter koseri ATCC 27028; assay type: functional
Klebsiella pneumoniae [2] = assay: Antibacterial activity against Klebsiella pneumoniae ATCC 7761; assay type: functional
Salmonella typhi = assay: Antibacterial activity against Salmonella typhi ATCC 700931; assay type: functional, Salmonella enterica subsp. enterica serovar Typhi; details: Salmonella enterica
Shigella dysenteriae = assay: Antibacterial activity against Shigella dysenteriae ATCC 32412; assay type: functional
Pseudomonas aeruginosa = assay: Antibacterial activity against Pseudomonas aeruginosa ATCC 27853; assay type: functional
Staphylococcus aureus = assay: Antibacterial activity against Staphylococcus aureus ATCC 25923; assay type: functional
Enterococcus faecalis = assay: Antibacterial activity against Enterococcus faecalis ATCC 51299; assay type: functional
Bacillus subtilis = assay: Antibacterial activity against Bacillus subtilis ATCC 9372; assay type: functional
Streptococcus pyogenes = assay: Antibacterial activity against Streptococcus pyogenes ATCC 19615; assay type: functional
Escherichia coli [3] = assay: Antibacterial activity against ampicillin-resistant Escherichia coli clinical isolate; assay type: functional
Klebsiella pneumoniae [4] = assay: Antibacterial activity against ampicillin-resistant Klebsiella pneumoniae clinical isolate; assay type: functional
Escherichia coli [5] = assay: Ratio of ampicillin MIC to compound MIC for ampicillin-resistant Escherichia coli clinical isolate; assay type: functional
Klebsiella pneumoniae [6] = assay: Ratio of ampicillin MIC to compound MIC for ampicillin-resistant Klebsiella pneumoniae clinical isolate; assay type: functional

Structure (SMILES)	MIC (Escherichia coli [1]) [µg/mL]	MIC (Citrobacter koseri) [µg/mL]	MIC (Klebsiella pneumoniae [2]) [µg/mL]	MIC (Salmonella typhi) [µg/mL]	MIC (Shigella dysenteriae) [µg/mL]	MIC (Pseudomonas aeruginosa) [µg/mL]	MIC (Staphylococcus aureus) [µg/mL]	MIC (Enterococcus faecalis) [µg/mL]	MIC (Bacillus subtilis) [µg/mL]	MIC (Streptococcus pyogenes) [µg/mL]	MIC (Escherichia coli [3]) [µg/mL]	MIC (Klebsiella pneumoniae [4]) [µg/mL]	Ratio (Escherichia coli [5])	Ratio (Klebsiella pneumoniae [6])
CCOC(=O)C1=C(C)NC(C)=C(C(=O)OCC)C1c1ccc(Cl)cc1	125 (≈ 344 µM)	125 (≈ 344 µM)	125 (≈ 344 µM)	500 (≈ 1370 µM)	500 (≈ 1370 µM)	500 (≈ 1370 µM)	125 (≈ 344 µM)	125 (≈ 344 µM)	500 (≈ 1370 µM)	125 (≈ 344 µM)	62.5 (≈ 172 µM)	31.2 (≈ 85.9 µM)	4	4
CCOC(=O)C1=C(C)NC(C)=C(C(=O)OCC)C1c1cccc(O)c1	500 (≈ 1450 µM)	500 (≈ 1450 µM)	500 (≈ 1450 µM)	500 (≈ 1450 µM)	125 (≈ 362 µM)	1250 (≈ 3620 µM)	1250 (≈ 3620 µM)	1250 (≈ 3620 µM)	1250 (≈ 3620 µM)	1250 (≈ 3620 µM)	125 (≈ 362 µM)	62.5 (≈ 181 µM)	4	4
CCOC(=O)C1=C(C)NC(C)=C(C(=O)OCC)C1c1cccc([N+](=O)[O-])c1	2500 (≈ 6680 µM)	2500 (≈ 6680 µM)	2500 (≈ 6680 µM)	1250 (≈ 3340 µM)	2500 (≈ 6680 µM)	5000 (≈ 13400 µM)	1250 (≈ 3340 µM)	2500 (≈ 6680 µM)	2500 (≈ 6680 µM)	2500 (≈ 6680 µM)	125 (≈ 334 µM)	125 (≈ 334 µM)	4	4
CCOC(=O)C1=C(C)NC(C)=C(C(=O)OCC)C1c1cc(OC)ccc1OC	500 (≈ 1280 µM)	250 (≈ 642 µM)	250 (≈ 642 µM)	500 (≈ 1280 µM)	500 (≈ 1280 µM)	2500 (≈ 6420 µM)	250 (≈ 642 µM)	250 (≈ 642 µM)	2500 (≈ 6420 µM)	250 (≈ 642 µM)	250 (≈ 642 µM)	125 (≈ 321 µM)	4	4
CCOC(=O)C1=C(C)NC(C)=C(C(=O)OCC)C1c1ccccc1O	250 (≈ 724 µM)	125 (≈ 362 µM)	125 (≈ 362 µM)	500 (≈ 1450 µM)	250 (≈ 724 µM)	250 (≈ 724 µM)	250 (≈ 724 µM)	250 (≈ 724 µM)	250 (≈ 724 µM)	250 (≈ 724 µM)	62.5 (≈ 181 µM)	31.2 (≈ 90.5 µM)	4	4
CCOC(=O)C1=C(C)NC(C)=C(C(=O)OCC)C1c1cc(OC)c(OC)c(OC)c1	2500 (≈ 5960 µM)	2500 (≈ 5960 µM)	2500 (≈ 5960 µM)	1250 (≈ 2980 µM)	1250 (≈ 2980 µM)	2500 (≈ 5960 µM)	1250 (≈ 2980 µM)	1250 (≈ 2980 µM)	1250 (≈ 2980 µM)	2500 (≈ 5960 µM)	250 (≈ 596 µM)	250 (≈ 596 µM)	4	4
CCOC(=O)C1=C(C)NC(C)=C(C(=O)OCC)C1c1ccc(OC)c(OC)c1	2500 (≈ 6420 µM)	2500 (≈ 6420 µM)	2500 (≈ 6420 µM)	1250 (≈ 3210 µM)	1250 (≈ 3210 µM)	1250 (≈ 3210 µM)	1250 (≈ 3210 µM)	1250 (≈ 3210 µM)	125 (≈ 321 µM)	1250 (≈ 3210 µM)	125 (≈ 321 µM)	125 (≈ 321 µM)	4	4
CCOC(=O)C1=C(C)NC(C)=C(C(=O)OCC)C1c1ccc(OC)cc1	1250 (≈ 3480 µM)	1250 (≈ 3480 µM)	1250 (≈ 3480 µM)	5000 (≈ 13900 µM)	2500 (≈ 6960 µM)	5000 (≈ 13900 µM)	2500 (≈ 6960 µM)	2500 (≈ 6960 µM)	1250 (≈ 3480 µM)	2500 (≈ 6960 µM)	62.5 (≈ 174 µM)	125 (≈ 348 µM)	4	4
CCOC(=O)C1=C(C)N=C(C)/C(=C(/O)OCC)C1	1250 (≈ 4930 µM)	1250 (≈ 4930 µM)	1250 (≈ 4930 µM)	2500 (≈ 9870 µM)	1250 (≈ 4930 µM)	1250 (≈ 4930 µM)	1250 (≈ 4930 µM)	1250 (≈ 4930 µM)	1250 (≈ 4930 µM)	1250 (≈ 4930 µM)	125 (≈ 493 µM)	62.5 (≈ 247 µM)	4	4
CC1(C)S[C@@H]2[C@H](NC(=O)[C@H](N)c3ccccc3)C(=O)N2[C@H]1C(=O)O [AMPICILLIN]	200 (≈ 572 µM)	25 (≈ 71.5 µM)	500 (≈ 1430 µM)	5 (≈ 14.3 µM)	50 (≈ 143 µM)	2 (≈ 5.72 µM)	10 (≈ 28.6 µM)	15 (≈ 42.9 µM)	25 (≈ 71.5 µM)	0.06 (≈ 0.172 µM)	> 2000	> 2000		
CCOC(=O)C1=C(C)NC(C)=C(C(=O)OCC)C1c1ccccc1	2500 (≈ 7590 µM)	2500 (≈ 7590 µM)	1250 (≈ 3790 µM)	2500 (≈ 7590 µM)	1250 (≈ 3790 µM)	1250 (≈ 3790 µM)	1250 (≈ 3790 µM)	2500 (≈ 7590 µM)	2500 (≈ 7590 µM)	2500 (≈ 7590 µM)	125 (≈ 379 µM)	125 (≈ 379 µM)	4	4
CCOC(=O)C1=C(C)NC(C)=C(C(=O)OCC)C1c1ccc(O)c(OC)c1	125 (≈ 333 µM)	125 (≈ 333 µM)	125 (≈ 333 µM)	125 (≈ 333 µM)	125 (≈ 333 µM)	125 (≈ 333 µM)	125 (≈ 333 µM)	125 (≈ 333 µM)	125 (≈ 333 µM)	125 (≈ 333 µM)	31.2 (≈ 83.2 µM)	31.2 (≈ 83.2 µM)	4	4
CCOC(=O)C1=C(C)NC(C)=C(C(=O)OCC)C1c1ccc(O)cc1	2500 (≈ 7240 µM)	2500 (≈ 7240 µM)	2500 (≈ 7240 µM)	5000 (≈ 14500 µM)	5000 (≈ 14500 µM)	5000 (≈ 14500 µM)	2500 (≈ 7240 µM)	2500 (≈ 7240 µM)	2500 (≈ 7240 µM)	2500 (≈ 7240 µM)	125 (≈ 362 µM)	125 (≈ 362 µM)	4	4
CCOC(=O)C1=C(C)NC(C)=C(C(=O)OCC)C1c1ccccc1Cl	250 (≈ 687 µM)	250 (≈ 687 µM)	250 (≈ 687 µM)	250 (≈ 687 µM)	250 (≈ 687 µM)	250 (≈ 687 µM)	125 (≈ 344 µM)	125 (≈ 344 µM)	250 (≈ 687 µM)	125 (≈ 344 µM)	125 (≈ 344 µM)	125 (≈ 344 µM)	4	4
